A short description of data set [1]: Metabolic stability assay, CD-1 mouse microsomes. The format is in vitro ADME.
Data set [2] in a line: Metabolic stability assay, human microsomes. It is filed as in vitro ADME.
Data set [3] can be described thus: in vitro. It is filed as in vitro ADME, mouse.
Data set [4] in a line: in vitro. The format is in vitro ADME, human.
A short description of data set [5]: Metabolic stability assay, rat microsomes (values in parentheses). It is filed as in vitro ADME. To be noted: value in parentheses.
The conditions of data set [6]: amide bond.
Where [7] appears, read: both, CD-1, mouse, microsomes, 10 µM.
[8] abbreviates: both, CD-1, mouse, microsomes, 1 h, 10 µM.
The mark [9] stands for this setting: both, human, microsomes, 1 h, 10 µM.
Setting [10] is: both, CD-1, mouse, plasma, 10 µM.
The mark [11] stands for this setting: both, CD-1, mouse, plasma, 4 h, 10 µM.

Like-named read-outs stand apart in the source and are kept apart here. Where only a bound is given, the exact number is not on record here.

As a reminder, the half-life is the time needed for the level to fall by half in the phase considered.
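Throughout, for Plasma Stability 240 min mouse [% remain.]: sodium citrate stabilized mouse plasma, parent compound quantified by HPLC/MS/MS relative to its peak area at time zero, run in triplicate.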
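Throughout, for Plasma Stability T½ [min] mouse: sodium citrate stabilized mouse plasma, parent compound quantified by HPLC/MS/MS relative to its peak area at time zero, run in triplicate.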

In turn, `CN1CCC[C@H](NC(=O)Cc2ccccc2)C(=O)N2C[C@@H](O)C[C@H]2COc2cccc(c2)C1=O` [Ex. 574, N-[(4S,6S,10S)-6-hydroxy-14-methyl-9,15-dioxo-2-oxa-8,14-diazatricyclo[14.3.1.0^4,8]icosa-1(20),16,18-trien-10-yl]-2-phenylacetamide] registered a Metabolic Stability T½ [min] mouse in data set [1] (setting [7]) of more than 60 min. Further, the “Metabolic Stability 60 min mouse [% remain.]” value in data set [1] (setting [8]) was found to be 93 % remain. This compound returned a Metabolic Stability T½ [min] hum in data set [2] (both, human, microsomes, 10 µM) of more than 60 min. In addition, in data set [2] (setting [9]), the “Metabolic Stability 60 min hum [% remain.]” value is listed as 94 % remain. In data set [3] (setting [10]), this compound displayed a Plasma Stability T½ [min] mouse of more than 240 min. In addition, the “Plasma Stability 240 min mouse [% remain.]” value in data set [3] (setting [11]) is given as 95 % remain. The Plasma Stability T½ [min] hum in data set [4] (human, plasma, 10 µM) is more than 240 min. Moreover, the “Plasma Stability 240 min hum [% remain.]” value in data set [4] (human, plasma, 4 h, 10 µM) came to 91 % remain. For the same compound, in data set [5], the “Metabolic Stability 60 min (rat) [% remain.]” value stood at 92 % remain and the “Metabolic Stability T½ [min] (rat)” value is reported as 60 (60) min.

As to `CN1CCC[C@H](N)C(=O)N2C[C@@H](OCc3ccc(-c4ccccc4)cc3)C[C@H]2COc2cccc(c2)C1=O` [Ex. 570, (4S,65,10S)-10-amino-6-([1,1′-biphenyl]-4-ylmethoxy)-14-methyl-2-oxa-8,14-diazatricyclo[14.3.1.0^4,8]icosa-1(20),16,18-triene-9,15-dione], the “Metabolic Stability 60 min mouse [% remain.]” value in data set [1] (mouse microsomes, 60 min) was determined as 69 % remain. Further, in data set [1] (mouse, microsomes), the Metabolic Stability T½ [min] mouse was more than 60 min. Further, the “Metabolic Stability 60 min hum [% remain.]” value in data set [2] (human microsomes, 60 min) came to 20 % remain. For the same compound, the “Metabolic Stability T½ [min] hum” value in data set [2] (human, microsomes) was determined as 13 min. Moreover, the “Plasma Stability 240 min mouse [% remain.]” value in data set [3] (mouse plasma, 240 min) turned out to be 100 % remain. This compound registered a Plasma Stability T½ [min] mouse in data set [3] (mouse, plasma) of more than 240 min. The “Plasma Stability 240 min hum [% remain.]” value in data set [4] (human plasma, 240 min) amounted to 92 % remain. Also, the Plasma Stability T½ [min] hum in data set [4] (human, plasma) is more than 240 min. Moreover, in data set [5], the “Metabolic Stability 60 min (rat) [% remain.]” value is listed as 76 % remain and the “Metabolic Stability T½ [min] (rat)” value is recorded as 60 (60) min.

For `CN1C[C@H](NC(=O)OCc2ccccc2)C(=O)N(C)CC(=O)N2C[C@@H](NC(=O)OC(C)(C)C)C[C@H]2COc2cncc(c2)C1=O` [Ex. 272, benzyl N-[(4S,6S,13S)-6-[(tert-butoxycarbonyl)amino]-11,15-dimethyl-9,12,16-trioxo-2-oxa-8,11,15,19-tetraazatricyclo[15.3.1.0^4,8]henicosa-1(21),17,19-trien-13-yl]carbamate], the Metabolic Stability T½ [min] mouse in data set [1] (setting [7]) is more than 60 min. In addition, in data set [1] (setting [8]), the “Metabolic Stability 60 min mouse [% remain.]” value is listed as 81 % remain. In data set [2] (both, human, microsomes, 10 µM), this compound had a Metabolic Stability T½ [min] hum of more than 60 min. The “Metabolic Stability 60 min hum [% remain.]” value in data set [2] (setting [9]) came to 65 % remain. Besides, in data set [3] (setting [10]), the Plasma Stability T½ [min] mouse is more than 240 min. Besides, in data set [3] (setting [11]), the “Plasma Stability 240 min mouse [% remain.]” value stood at 92 % remain. For the same compound, in data set [6] (from CNCC(=O)N1C[C@@H](NC(=O)OC(C)(C)C)C[C@H]1COc1cncc(C(=O)N(C)C[C@H](NC(=O)OCc2ccccc2)C(=O)O)c1, T3P, i-Pr2NEt, CH2Cl2, 9.75 mM), the ring closure, yield of all isomers was 38%. The compound also registered a Plasma Stability T½ [min] hum in data set [4] (human, plasma, 10 µM) of more than 240 min. The “Plasma Stability 240 min hum [% remain.]” value in data set [4] (human, plasma, 4 h, 10 µM) is given as 95 % remain.

For the compound `CN1CCC[C@H](NC(=O)OCc2ccccc2)C(=O)N[C@@H]2C[C@@H](COc3ccc(F)cc3C1=O)N(C(=O)OC(C)(C)C)C2` [Ex. 403, tert-butyl (1S,15S,18R)-15-{[(benzyloxy)carbonyl]amino}-7-fluoro-11-methyl-10,16-dioxo-3-oxa-11,17,20-triazatricyclo[16.2.1.0^4,9]henicosa-4,6,8-triene-20-carboxylate], the half-life at 10 µM is 0.95 h in data set [1] (both sexes, CD-1, mouse, microsomes) and 0.6 h in data set [2] (both sexes, human, microsomes). Besides, the “Metabolic Stability 60 min mouse [% remain.]” value in data set [1] (setting [8]) amounted to 55 % remain. Besides, the “Metabolic Stability 60 min hum [% remain.]” value in data set [2] (setting [9]) was determined as 37 % remain. Also, the Plasma Stability T½ [min] mouse in data set [3] (setting [10]) is more than 240 min. For the same compound, the “Plasma Stability 240 min mouse [% remain.]” value in data set [3] (setting [11]) is 65 % remain. Besides, the ring closure, yield of all isomers in data set [6] (from CN(CCC[C@H](NC(=O)OCc1ccccc1)C(=O)O)C(=O)c1cc(F)ccc1OC[C@@H]1C[C@@H](N)CN1C(=O)OC(C)(C)C, FDPP, DMF, 1.0 mM) is 73%. In data set [4] (human, plasma, 10 µM), the Plasma Stability T½ [min] hum was more than 240 min. In addition, the “Plasma Stability 240 min hum [% remain.]” value in data set [4] (human, plasma, 4 h, 10 µM) was 100 % remain.

In data set [6] (from CN(CC[C@H](NC(=O)OCc1ccccc1)C(=O)O)C(=O)c1cccc(OC[C@@H]2C[C@H](NC(=O)OCC[Si](C)(C)C)CN2)c1, FDPP, DMF, 0.97 mM), `CN1CC[C@H](NC(=O)OCc2ccccc2)C(=O)N2C[C@@H](NC(=O)OCC[Si](C)(C)C)C[C@H]2COc2cccc(c2)C1=O` registered a ring closure, yield of all isomers of 43%.

On to `CN1CCC[C@H](NC(=O)OCc2ccccc2)C(=O)N2C[C@@H](Cc3ccccc3)C[C@H]2COc2cccc(c2)C1=O`, for which the ring closure, yield of all isomers in data set [6] (from CN(CCC[C@H](NC(=O)OCc1ccccc1)C(=O)O)C(=O)c1cccc(OC[C@@H]2C[C@H](Cc3ccccc3)CN2)c1, T3P, CH2Cl2, 4.5 mM, 25.0 °C, 0.5 h) is 37%.

Turning to `CN1C(=O)c2cccc(c2)OC[C@@H]2C[C@H](NC(=O)OC(C)(C)C)CN2C(=O)COC[C@H]1C(=O)OCc1ccccc1`, the ring closure, yield of all isomers in data set [6] (from CN(C(=O)c1cccc(OC[C@@H]2C[C@H](NC(=O)OC(C)(C)C)CN2)c1)[C@@H](COCC(=O)O)C(=O)OCc1ccccc1, FDPP, DMF, 5.2 mM) turned out to be 80%.

For `CC(C)(C)OC(=O)N[C@@H]1C[C@H]2COc3ccc(Br)cc3C(=O)NC3(CCCC3)C(=O)N[C@@H](Cc3ccc4ccccc4c3)CC(=O)N2C1`, the ring closure, yield of all isomers in data set [6] (from CC(C)(C)OC(=O)N[C@H]1CN[C@H](COc2ccc(Br)cc2C(=O)NC2(C(=O)N[C@H](CC(=O)O)Cc3ccc4ccccc4c3)CCCC2)C1, T3P, i-Pr2NEt, CH2Cl2, 1.0 mM, 25.0 °C, 2.0 h) stood at 68%.

The compound `CN1C[C@H](NC(=O)OCc2ccccc2)C(=O)N(C)CC(=O)N2C[C@@H](NC(=O)OCC[Si](C)(C)C)C[C@H]2COc2cccc(c2)C1=O` returned a ring closure, yield of all isomers in data set [6] (from CN(C[C@H](NC(=O)OCc1ccccc1)C(=O)N(C)CC(=O)O)C(=O)c1cccc(OC[C@@H]2C[C@H](NC(=O)OCC[Si](C)(C)C)CN2)c1, FDPP, DMF, 9.73 mM) of 63%.

In turn, `O=C1NCCC[C@H](O)C(=O)N2C[C@@H](OCc3ccc(Br)cc3)C[C@H]2COc2cccc1c2` displayed a ring closure, yield of all isomers in data set [6] (from O=C(NCCC[C@H](O)C(=O)O)c1cccc(OC[C@@H]2C[C@H](OCc3ccc(Br)cc3)CN2)c1, T3P, i-Pr2NEt, CH2Cl2, 1.0 mM) of 47%.

`CN1CCCC[C@H](NC(=O)OCc2ccccc2)C(=O)N2C[C@@H](NC(=O)OC(C)(C)C)C[C@H]2COc2cncc(c2)C1=O`: the ring closure, yield of all isomers in data set [6] (from CN(CCCC[C@H](NC(=O)OCc1ccccc1)C(=O)O)C(=O)c1cncc(OC[C@@H]2C[C@H](NC(=O)OC(C)(C)C)CN2)c1, T3P, CH2Cl2, 4.78 mM) came out at 79%.

Consider `CN1C(=O)c2cc(F)ccc2OC[C@@H]2CN(C(=O)OC(C)(C)C)CCN2C(=O)CC[C@H]1C(=O)OCc1ccccc1`, for which the ring closure, yield of all isomers in data set [6] (from CN(C(=O)c1cc(F)ccc1OC[C@@H]1CN(C(=O)OC(C)(C)C)CCN1)[C@@H](CCC(=O)O)C(=O)OCc1ccccc1, T3P, CH2Cl2, 0.57 mM, 25.0 °C, 20.0 h) was found to be 77%.

Take `CN1CC(=O)N2C[C@@H](NC(=O)OCC[Si](C)(C)C)C[C@H]2COc2cccc3c2C[C@@](NC(=O)OC(C)(C)C)(CC3)C(=O)N(C)C[C@H](NC(=O)OCc2ccccc2)C1=O`: the ring closure, yield of all isomers in data set [6] (from CN(CC(=O)O)C(=O)[C@H](CN(C)C(=O)[C@]1(NC(=O)OC(C)(C)C)CCc2cccc(OC[C@@H]3C[C@H](NC(=O)OCC[Si](C)(C)C)CN3)c2C1)NC(=O)OCc1ccccc1, T3P, i-Pr2NEt, CH2Cl2, 10.0 mM, 2.0 h) stood at 44%.

`CN1CCC[C@H](NC(=O)OCc2ccccc2)C(=O)N2C[C@@H](OCc3ccc(Br)cc3)C[C@H]2COc2cccc(c2)C1=O` came in with a ring closure, yield of all isomers in data set [6] (from CN(CCC[C@H](NC(=O)OCc1ccccc1)C(=O)O)C(=O)c1cccc(OC[C@@H]2C[C@H](OCc3ccc(Br)cc3)CN2)c1, T3P, CH2Cl2, 5.5 mM, 25.0 °C, 20.0 h) of 57%.

Compound `C[C@H]1C(=O)NCCC(=O)N2C[C@H](NC(=O)c3ccccc3)C[C@H]2COc2cccc(c2)C(=O)N1C` came in with a ring closure, yield of all isomers in data set [6] (from *CNC(=O)CCCOc1cc(OC)c(CN(C(=O)c2ccccc2)[C@@H]2C[C@@H](COc3cccc(C(=O)N(C)[C@@H](C)C(=O)O)c3)N(C(=O)CCN)C2)c(OC)c1, FDPP, i-Pr2NEt, DMF, 67.0 mM, 30.0 h, 7 steps) of 16%.

As for `CC(C)(C)OC(=O)N[C@H]1C[C@H]2COc3cccc(c3)C(=O)NCCC[C@H](NC(=O)OCc3ccccc3)C(=O)N2C1`, the ring closure, yield of all isomers in data set [6] (from CC(C)(C)OC(=O)N[C@@H]1CN[C@H](COc2cccc(C(=O)NCCC[C@H](NC(=O)OCc3ccccc3)C(=O)O)c2)C1, T3P, i-Pr2NEt, CH2Cl2, 5.37 mM) turned out to be 71%.

Compound `CN1C(=O)c2cc(F)ccc2OC[C@@H]2C[C@H](NC(=O)OCC[Si](C)(C)C)CN2C(=O)CC[C@H]1C(=O)OCc1ccccc1` showed a ring closure, yield of all isomers in data set [6] (from CN(C(=O)c1cc(F)ccc1OC[C@@H]1C[C@H](NC(=O)OCC[Si](C)(C)C)CN1)[C@@H](CCC(=O)O)C(=O)OCc1ccccc1, T3P, CH2Cl2, 10.0 mM, 25.0 °C, 20.0 h) of 61%.

With `CN1CCC[C@H](NC(=O)OCc2ccccc2)C(=O)N2C[C@@H](NC(=O)OCC[Si](C)(C)C)C[C@H]2COc2cccc(c2)C1=O`, in data set [6] (from CN(CCC[C@H](NC(=O)OCc1ccccc1)C(=O)O)C(=O)c1cccc(OC[C@@H]2C[C@H](NC(=O)OCC[Si](C)(C)C)CN2)c1, T3P, CH2Cl2, 9.4 mM), the ring closure, yield of all isomers was 54%.

On to `CN1CC(=O)N2C[C@H](NC(=O)OC(C)(C)C)C[C@H]2COc2ccc(cc2)C(=O)N(C)[C@H](C(=O)OCc2ccccc2)CCC1=O`, for which, in data set [6] (from CNCC(=O)N1C[C@H](NC(=O)OC(C)(C)C)C[C@H]1COc1ccc(C(=O)N(C)[C@@H](CCC(=O)O)C(=O)OCc2ccccc2)cc1, T3P, i-Pr2NEt, CH2Cl2, 1.05 mM, 3.0 h), the ring closure, yield of all isomers amounted to 54%.

For the origin of these results see US9512139B2, “Conformationally constrained, fully synthetic macrocyclic compounds” (POLYPHOR AG, priority 2009, dated 2016).
